# Laboratory results published in patent publication US12508275B2, “Neomycin based compounds, and pharmaceutical use thereof” (UNIVERSITÉ COTE D'AZUR, priority 2019, dated 2025).
# Assays:
# [1] = system: Patient derived GSC (GB5); assay: Effect of compound treatment on GSC phenotype (adhesion, morphology), GB5; type: cell-based, human; details: three days
# Excerpt: FIG. 1: phase contrast images of GB5 morphology untreated (CTL DMSO) or treated with the indicated compound (“Cpd” denotes compound) at the indicated concentration. Control cells grow as non-adherent spheroids composed of numerous GSC. When differentiated the cells become adherent and spread on the culture dish.
# B—Cell culture: Patient-derived cells GB5 were isolated from surgical resection of human primary GBM provided by the department of neurosurgery of the University Hospital of Nice. TG6 (patient-derived cell from primary GBM) and HNNSC25 (Human Normal Neural Stem Cells) have been provided by Dr Hervé Chneiweiss, University of Pierre and Marie Curie, Paris. The resulting primary cultures (GB5, TG6, HNNSC25) were grown in NS34+ medium containing EGF and bFGF (DMEM-F12 1/1 ratio, 10 mM glutamine, 10 mM Hepes, 0.025% Sodium bicarbonate, N2, G5, and B27).
# Patient derived GSC (GB5) were treated with growing concentration of Compounds 9a-b and 18a-b (10 to 100 uM) during three days). […] Similar results have been obtained with TG6.
# NESTIN expression in GB5 = assay: NESTIN expression by immunofluorescence in GB5; type: cell-based, human; details: GB5, seven days, growing concentrations
# Description: (§1) FIG. 2: Compounds 9a-b and 18a-b effect on stemness marker expression, clonal expansion and mitosis in GB5 cells. (A) NESTIN expression was assessed by immunofluorescence in GB5 treated with increasing amount of Compounds 9a-b and 18a. The number of NESTIN positive cells was counted for each treatment and express as percentage of the control (100%). The results are the meaning of at least two separate experiments. […] (C) Clonal expansion analysis was performed with GB5 cells as described in the material and method section. Two and three weeks later, the number of spheroids is counted and reported as percentage of the initial number of cells in the well. The results are the meaning of a minimum of two separate experiments. (D) The number of mitosis in the culture was determined by the detection of the number of cells positive for histone H3 phosphorylated on ser-10 (H3-ser10). H3-ser10 expression was assessed by immunofluorescence in GB5 treated with increasing amount of Compounds 9a-b and 18a. The number of positive cells was counted for each treatment and express as percentage of the control (100%). The results are the meaning of at least two separate experiments.
# (§2) III—Immunofluorescence assay: TG6 and GB5 were seeded at 2000 cells/well in 24 wells plate in NS34+ alone or containing 5, 7.5, 10, 12.5, 15, 20 and 25 uM of Compounds 9a-b and 18a-b. Cultures were incubated 4 days and the cells were fixed with 4% paraformaldehyde for 10 min at room temperature then washed with PBS. Cells were then incubated with ammonium chloride at 20 mM 5 min at room temperature and washed 5 times with PBS. Blocking and hybridization were realized in PBS containing 10% FCS and 0.1% Triton X100. Anti-Nestin and anti-H3Phospho serine 10 antibodies were incubated 2 hours at room temperature then washed with PBS. Fluorescence coupled secondary antibodies and Hoechst 33342 nuclei counterstaining reagent were hybridized one hour at room temperature. Cells were mounted with anti-fading agent then imaged, counted and quantified using fluorescent microscopy (TiE Nikon) and NiS software (Nikon).
# Patient derived GSC (GB5) have been treated during seven days, with growing concentrations of compounds that have been capable of inducing changes of GSC morphology. To assess the consequence on stemness maintenance, we observed, by immunofluorescence, the expression of stemness and progenitor cells such as the NESTIN protein. […] The strongest effect has been obtained with Compounds 9a treatment (IC50=10 uM).
# GB5 cells [2] = assay: Clonal expansion (clonal proliferation) of GB5; type: cell-based, human; details: GB5, spheroids counted after two and three weeks
# Description: as §1
# Clonal proliferation: TG6 and GB5 were seeded at 10 cells/well in 96 wells plate in NS34+ medium alone or containing growing concentration of Compounds 9a-b and 18a-b. Immediately after seeding, the real number of cells in the well was determined by direct count. Two and three weeks later, the resulting number of spheroids in each well was evaluated by a direct count. The % of clonal efficiency was calculated in dividing […].
# (§3) It was further investigated the effects of selected compounds on GSC clonal expansion as well as their capacity of mitosis (FIGS. 2B and C). Compounds 9a-b and 18a treatment altered GSC clonal expansion and mitosis. The most efficient inhibition of clonal expansion was provided by Compound 9a treatment (IC50<10 uM) while both Compounds 9a-b were the most efficient for mitosis inhibition (IC50<10 uM) (FIGS. 2C and D).
# GB5 cells [3] = assay: Mitosis: cells positive for histone H3 phosphorylated on ser-10, GB5; type: cell-based, human; details: GB5, H3-ser10 positive cells
# Description: as §1, §2, §3
# GB5 = assay: XTT toxicity assay on GSC (GB5); type: cell-based
# Description: FIG. 4: Determination of compound toxicity on GSC and normal human cells. (A) GB5 were incubated with growing concentration of Compounds 9a-b and 18a. (B) human normal neural stem cell (NNSC), human normal kidney cells (NHEK), human normal hepatocytes (HEPRG) and (C) human endothelial cells (HUVEC) were treated with growing concentration of Compound 9a. 7 days later, the cells were subjected to an XTT assays as described in the method section. The results are the meaning of at least two separate experiments. Cell death was confirmed by trypan blue staining (not shown).
# II—XTT assay: TG6 and GB5 were seeded at 2000 cells/well in 96 wells plate in NS34+ alone or containing 10, 20, 25, 50 and 100 uM of Compounds 9a-b and 18a-b. Cultures were incubated 4 days and the cell proliferation was evaluated as indicated by the manufacturer.
# V—Toxicity tests: NNSC, GB5, TG6, HEK293, and HepaRG, HUVEC were seeded at 2000 cells/well in 96 wells plate in their respective culture mediums alone or containing growing concentration from 10 to 500 uM of Compounds 9a-b. Cultures were incubated 4 days and the cellular toxicity has been evaluated by XTT assays. Cell viability has been also assessed by counting living and dead cells with trypan blue staining.
# XTT assays allows, through cell metabolism measurement, to determine a cytotoxic/cytostatic effects. Compounds 9a-b and 18a were tested for their eventual toxicity by XTT assays as described in the material and method section. At the working concentrations 10 to 25 uM, the compounds are not toxic for GSC (FIG. 4A). […] Compound 9a toxicity was further tested on normal neural stem cells (NNSC), human kidney (NHEK), human hepatocytes (HEPRG) and human endothelial cells (HUVEC). The compound is not toxic on NNSC, NHEK, HEPRG and HUVEC cells when used between 10 to 50 uM. At 100 uM and above, Compound 9a was toxic (FIG. 4).
# GB5 cells [4] = assay: TMZ assay: GSC sensitivity to Temozolomide (XTT); type: cell-based, human; details: three days; for increase of TMZ sensitivity: GB5, TMZ 400 uM plus compound at 10 uM; for increase of TMZ sensitivity, maximal effect: GB5, TMZ 400 uM plus compound at 50 uM
# Description: FIG. 5: Sensitivity to TMZ was assessed by comparing the percentage of dead cells between TMZ treated GB5 and TMZ treated GB5 in combination with Compound 9a. GB5 cells have been treated with 400 uM TMZ alone or in combination with growing concentrations of Compounds 9a-b and 18b. The results are the meaning of at least two separate experiments.
# IV—TMZ assay: TG6 and GB5 were seeded at 2000 cells/well in 96 wells plate in NS34+ or treated with medium containing 400 uM of TMZ alone or mixed with 10, 25 and 50 uM of Compounds 9a-b and 18a-b. Cultures were incubated 4 days and the cell viability has been evaluated by XTT assays and a count of living and dead cells with trypan blue staining.
# Temozolomide is the chemotherapy of reference for GBM treatment. In order to assess whether the compounds might sensitize GSC to TMZ, TMZ (400 uM) pretreated GB5 cells were incubated with 10, 25 and 50 uM of Compounds 9a-b and 18b. Three days later the experiment is stop and the cells were subjected to an XTT assays. […] Cell toxicity was confirmed by trypan blue staining.
Compound,"adhesion and changes in GSC morphology ([1]; GB5, 10 uM)",NESTIN expression (NESTIN expression in GB5),GSC clonal expansion (GB5 cells [2]),GSC mitosis (GB5 cells [3]),"IC50 (GB5 cells [3]; Homo sapiens, read-out: mitosis inhibition IC50) [µM]","toxicity for GSC (XTT) (GB5; GB5, 50 uM and higher)","toxicity for GSC (XTT) (GB5; GB5, 10 to 25 uM)",increase of TMZ sensitivity (GB5 cells [4]) [fold],"increase of TMZ sensitivity, maximal effect (GB5 cells [4]) [fold]","adhesion and changes in GSC morphology ([1]; GB5, 25 uM)"
"NCC1OC(OC2C(Cn3cc(CCC(=O)NCCc4nc(-c5nc(C(=O)NCCCCN=C(N)N)cs5)cs4)nn3)OC(OC3C(O)C(N)CC(N)C3OC3OC(CN)C(O)C(O)C3N)C2O)C(N)C(O)C1O (stereo not drawn) [Compound 9b, N-(4-((Diaminomethylene)amino)butyl)-2′-(2-(3-(1-methyl-1H-1,2,3-triazol-4-yl)propanamido)ethyl)-[2,4′-bithiazole]-4-carboxamide-neomycin]",induced adhesion and changes in GSC morphology,drop in NESTIN expression,altered,altered,< 10,relative toxicity,not toxic,1.8,2.8,
"NCCCCNCCCNC(=O)c1csc(-c2csc(CCNC(=O)CCC(=O)NCC3OC(OC4C(O)C(N)CC(N)C4OC4OC(CN)C(O)C(O)C4N)C(O)C3OC3OC(CN)C(O)C(O)C3N)n2)n1 (stereo not drawn) [Compound 18a, 4-((2-(4-((3-((4-aminobutyl)amino)propyl)carbamoyl)-[2,4′-bithiazol]-2′-yl)ethyl)amino)-4-oxobutanoic-amido-neomycin]",induced adhesion and changes in GSC morphology,drop in NESTIN expression,altered,altered,,relative toxicity,not toxic,,,
"NCCCNC(=O)c1csc(-c2csc(CCNC(=O)CCC(=O)NCC3OC(OC4C(O)C(N)CC(N)C4OC4OC(CN)C(O)C(O)C4N)C(O)C3OC3OC(CN)C(O)C(O)C3N)n2)n1 (stereo not drawn) [Compound 18b, 4-((2-(4-((3-aminopropyl)carbamoyl)-[2,4′-bithiazol]-2′-yl)ethyl)amino)-4-oxobutanoic-amido-neomycin]",,,,,,,,1.7,3,induced adhesion and changes in GSC morphology
